Assay results published in paper PMC10096123, “14-Substituted Diquinothiazines as a New Group of Anticancer Agents” (Molecules, 2023).
Entries after “also recorded” stand apart in the source; their conditions may differ.

Experiments:
A549 cells = assay: 72-h MTT viability assay, A549; assay type: cell-based, human; settings: 72 h incubation, mean of 3 experiments +/-SD
From the text: (§1) The IC50 for cell viability was described with a dose of the drug, with a 50% reduction in the whole population, when compared to the untreated controls. The obtained results allow for a comparison of different compounds, using the same or different targeted cell lines. Cell survival fractions (SF), followed by the MTT 72-h viability assay for the HCT116 and SH-5YSY cells, are presented in the Supplementary File (Figure S1).
(§2) For cytological studies, human cancer cell lines were chosen, with special emphasis on the colorectal, HCT116, and neuroblastoma SH-5YSY cell lines, as well as lung normal epithelial BEAS-2B and cancer H1299 and A549 cancer cell lines (all obtained from the ATTC collection; Manassas, VA, USA). The cells were harvested under the standard conditions in incubator (5% CO2, 37 °C and 60% humidity; Panasonic model MCO-19 AIC). Cells were cultured in T75 mL sterile bottles (Sartedt), using DMEM-F12 medium (Merck, Poznań, Poland) supplemented with 10% of Fetal Bovine Serum (EURx, Gdańsk, Poland). During the experimental procedure, each cell line wasn’t more than 60–80% confluenced, no older than maximal number of passages 30. For adherent cell passages, the enzyme trypsin working solution, prepared in sodium phosphate buffer saline (PBS, pH = 7.4; PAN-Biotech Gmbh, Aidenbach, Germany), was used. The tested compounds were prepared as […] stocks in 100% DMSO (Merck, Poznań, Poland), and were stored at −20 °C. Before use in cytological studies, the working solution of each compound was prepared directly in complete DMEM-F12 medium. A positive-control, anticancer drug, etoposide (Merck, Poznań, Poland), was dissolved and prepared as solutions with doses of 20, 10, 5, 2.5, 1.25, 0.63 µM (0 µM for control, untreated cells in DMEM-F12 without any tested compound additions), respectively.
(§3) HCT116 and SH-5YSY cells collected after trypsinization were counted under the Bürker’s chamber, and 2000 or 5000 cells were seeded on each well of the 96-well-format sterile plate (Sarstedt, Nümbrecht, Germany), in 100 µL of complete DMEM-F12 medium, respectively. Twenty-four hours before compound addition, the cells were monitored directly on plates; only well-attached cells were used for treatments with background controls (DMSO with final maximal concentration of 1%) and untreated controls. The normal lung (BEAS-2B) and cancer (H1299 and […]) cell lines were cultured and prepared for viability MTT assay in similar way. To treat wells, 100 µL of tested compounds in fresh medium were added at concentration range of 100, 50, 25, 12.5, 6.25, 3.13 µM (0 µM for control, untreated cells in DMEM-F12 without any tested compound additions). An etoposide as a positive control, as anticancer drug, was prepared in similar way. Followed by 72 h of incubation, the viability assay was performed according to the producer protocol (Promega, Madison, WI, USA), where the medium and compounds were removed and cells were washed with PBS solution. A yellow tetrazolium salt (3-(4,5-dimethylthiazol-2-yl)-2,5-diphenyltetrazolium bromide solution (0.5 mg/mL) in serum and phenol red-free DMEM (Merck, Poznań, Poland) was added to each well on plates at a volume of 50 µL for 2–3 h of darkness, at 37 °C incubation. The purple formazan crystals were produced only by the viable cells, containing NAD (P)H-dependent oxidoreductase enzymes, which reduce the MTT. The crystals were dissolved in acidic (0.04 M HCl) 2-propanolol solution (Merck, Poznań, Poland) after addition of 75 µL of dissolving mixture to each well on plates for 5–10 min in darkness and at room-temperature (RT) incubation. The absorption at 570 nm was measured directly using multiplate reader (Epoch, BioTek, Winooski, VT, USA). Each time, the biological experiments were repeated three times.
(§4) Obtained absorbance was analyzed for proliferation and survival fraction (SF) assessments, where tested samples were compared to the untreated controls (100%). […]

HCT116 cells = assay: 72-h MTT viability assay, HCT116; assay type: cell-based, human; settings: 72 h incubation, mean of 3 experiments +/-SD
From the text: as §1, §2, §3, §4

H1299 cells = assay: 72-h MTT viability assay, H1299; assay type: cell-based, human; settings: 72 h incubation, mean of 3 experiments +/-SD
From the text: as §1, §2, §3, §4

SH-SY5Y cells = assay: 72-h MTT viability assay, SH-SY5Y; assay type: cell-based, human; settings: 72 h incubation, mean of 3 experiments +/-SD, no effect = viability (SF) similar to control, about 100%; for IC50: Homo sapiens, SH-SY5Y
From the text: as §1, §2, §3, §4

BEAS-2B cells = assay: 72-h MTT viability assay, normal lung epithelial BEAS-2B; assay type: cell-based, human; settings: 72 h incubation, mean of 3 experiments +/-SD, no effect = viability (SF) similar to control, about 100%; for IC50: Homo sapiens, BEAS-2B
From the text: as §1, §2, §3, §4

[1] = system: HCT116, SH-SY5Y, A549, H1299 cell lines; assay: 72-h MTT viability assay, all cell lines used in the study (summary statements); assay type: cell-based, human; settings: for anticancer activity (ranking within the series): HCT116 and SH-SY5Y, in words
From the text: as §1, §2
HCT116 and SH-5YSY cells collected after trypsinization were counted under the Bürker’s chamber, and 2000 or 5000 cells were seeded on each well of the 96-well-format sterile plate (Sarstedt, Nümbrecht, Germany), in 100 µL of complete DMEM-F12 medium, respectively. Twenty-four hours before compound addition, the cells were monitored directly on plates; only well-attached cells were used for treatments with background controls (DMSO with final maximal concentration of 1%) and untreated controls. The normal lung (BEAS-2B) and cancer (H1299 and […]) cell lines were cultured and prepared for viability MTT assay in similar way. […] The absorption at 570 nm was measured directly using multiplate reader (Epoch, BioTek, Winooski, VT, USA). […]
as §4

| SMILES | IC50 (A549 cells; Homo sapiens, A549, 72 h) [µM] | IC50 (HCT116 cells; Homo sapiens, HCT-116, 72 h) [µM] | IC50 (H1299 cells; Homo sapiens, NCI-H1299, 72 h) [µM] | IC50 (SH-SY5Y cells) [µM] | IC50 (BEAS-2B cells) [µM] | IC50 BEAS-2B (BEAS-2B cells) | IC50 SH-SY5Y (SH-SY5Y cells) | melting point [°C] | IC50 (HCT116 cells) [µM] | IC50 (H1299 cells) [µM] | anticancer activity (ranking within the series) [1] | IC50 ([1]; Homo sapiens, range over the cancer cell lines, read-out: IC50 values against all cell lines used in the study) [µM] | IC50 (A549 cells) [µM] | IC50 (A549 cells; listed as etopiside) [µM] |
| --- | --- | --- | --- | --- | --- | --- | --- | --- | --- | --- | --- | --- | --- | --- |
| c1ccc2c3c(cnc2c1)Sc1cnc2ccccc2c1N3CCN1CCCC1 [Compound 2a, 14-(pyrrolidinylethyl)diquinothiazine] | 13.3 ± 2.23 | 11.1 ± 3.39 | 8.1 ± 1.83 | 6.5 ± 1.22 | 84.5 ± 11.1 | – | – | – | – | – | – | – | – | – |
| O=C1CCCN1CCCN1c2c(cnc3ccccc23)Sc2cnc3ccccc3c21 [Compound 2b, 14-(pyrrolidinonylpropyl)diquinothiazine] | 12.4 ± 2.25 | 9.4 ± 4.41 | 5.3 ± 1.04 | 7.7 ± 2.59 | 83.5 ± 12.3 | – | – | – | – | – | – | – | – | – |
| c1ccc2c3c(cnc2c1)Sc1cnc2ccccc2c1N3CCN1CCCCC1 [Compound 2c] | 14.7 ± 2.81 | – | 7.5 ± 1.97 | 14.3 ± 1.49 | – | no effect | – | – | – | – | – | – | – | – |
| c1ccc2c3c(cnc2c1)Sc1cnc2ccccc2c1N3CCN1CCOCC1 [Compound 2d] | 20.7 ± 2.25 | 23.1 ± 1.37 | 8.9 ± 1.02 | 13.5 ± 2.69 | 118 ± 18.4 | – | – | – | – | – | – | – | – | – |
| c1ccc2c3c(cnc2c1)Sc1cnc2ccccc2c1N3CCN1CCNCC1 [Compound 2e, 14-(piperazinyloethyl)dichinotiazyny] | 10.1 ± 2.26 | 10.3 ± 1.82 | 7 ± 1.85 | 4.9 ± 0.87 | 26.5 ± 1.85 | – | – | – | – | – | – | – | – | – |
| CCN(CC)CCN1c2c(cnc3ccccc23)Sc2cnc3ccccc3c21 [Compound 2f] | 27.9 ± 2.07 | 16.9 ± 1.73 | 22.2 ± 3.83 | – | 122 ± 12 | – | inactive; also recorded: no effect | – | – | – | – | – | – | – |
| CN(C)CCCN1c2c(cnc3ccccc23)Sc2cnc3ccccc3c21 [Compound 2g] | 31.5 ± 2.36 | 13.1 ± 1.82 | 24.5 ± 1.91 | – | – | no effect | inactive; also recorded: no effect | – | – | – | – | – | – | – |
| N#Cc1ccc(N2c3c(cnc4ccccc34)Sc3cnc4ccccc4c32)cc1 [Compound 3a, 14-(4-cyanophenyl)diquinothiazine] | 84.9 ± 12.1 | < 8.6 | 3.7 ± 0.91 | – | – | no effect | inactive; also recorded: no effect | > 300 | 4.9 ± 1.97 | – | – | – | – | – |
| FC(F)(F)c1ccc(N2c3c(cnc4ccccc34)Sc3cnc4ccccc4c32)cc1 [Compound 3b, 14-(4-trifluoromethylphenyl)diquinothiazine] | 42.5 ± 16.5 | 17.1 ± 4.81 | 14.6 ± 1.92 | – | 86.1 ± 11 | – | inactive; also recorded: no effect | 292 to 293 | – | – | – | – | – | – |
| CSc1ccc(N2c3c(cnc4ccccc34)Sc3cnc4ccccc4c32)cc1 [Compound 3c, 14-(methylthiophenyl)diquinothiazine] | 17.2 ± 1.02 | – | 2.7 | 2.7 ± 0.21 | 69 ± 4.89 | low cytotoxicity | – | 262 to 263 | – | 1.6 ± 0.86 | strongest anticancer activity | 1.6 to 17.2 | – | – |
| CC(=O)NCCN1c2c(cnc3ccccc23)Sc2cnc3ccccc3c21 [Compound 5a, 14-acetylaminoethyldiquinothiazine] | 71.1 ± 14.7 | 25.9 ± 4.87 | 26.2 ± 1.99 | 24.7 ± 5.44 | 108 ± 9.83 | – | – | 89 to 90 | – | – | lowest anticancer activity | – | – | – |
| CC(=O)NCCCN1c2c(cnc3ccccc23)Sc2cnc3ccccc3c21 [Compound 5b, 14-acetylaminopropyldiquinothiazine] | 56.5 ± 15.6 | 17.7 ± 1.53 | 23.5 ± 1.97 | 21.4 ± 4.02 | 86.9 ± 9.67 | – | – | 171 to 172 | – | – | – | – | – | – |
| CC(=O)NCCCCN1c2c(cnc3ccccc23)Sc2cnc3ccccc3c21 [Compound 5c, 14-acetylaminobutyldiquinothiazine] | 49.3 ± 15.9 | 26.5 ± 1.15 | 30.3 ± 1.57 | 21.9 ± 4.31 | – | no effect | – | 68 to 69 | – | – | lowest anticancer activity | – | – | – |
| CS(=O)(=O)NCCN1c2c(cnc3ccccc23)Sc2cnc3ccccc3c21 [Compound 6a, 14-methanesulfonylaminoethyldiquinothiazine] | 65.4 ± 14.1 | 20.2 ± 1.01 | 36.9 ± 6.06 | – | – | no effect | inactive; also recorded: no effect | 229 to 230 | – | – | – | – | – | – |
| CS(=O)(=O)NCCCN1c2c(cnc3ccccc23)Sc2cnc3ccccc3c21 [Compound 6b, 14-methanesulfonylaminopropyldiquinothiazine] | 45.2 ± 17.2 | 15.6 ± 1.16 | 25.9 ± 4.14 | – | – | no effect | inactive; also recorded: no effect | 199 to 200 | – | – | – | – | – | – |
| CS(=O)(=O)NCCCCN1c2c(cnc3ccccc23)Sc2cnc3ccccc3c21 [Compound 6c, 14-methanesulfonylaminobutyldiquinothiazine] | 36.9 ± 16.8 | 17.6 ± 1.85 | 13.4 ± 1.68 | 21.6 ± 7.64 | – | no effect | – | 184 to 186 | – | – | – | – | – | – |
| c1ccc2c3c(cnc2c1)Sc1cnc2ccccc2c1N3 [Compound M0] | 18 ± 3.09 | 5.8 ± 0.63 | 67.2 ± 9.64 | – | – | no effect | inactive; also recorded: no effect | – | – | – | – | – | – | – |
| COc1cc([C@@H]2c3cc4c(cc3[C@@H](O[C@@H]3O[C@@H]5CO[C@@H](C)O[C@H]5[C@H](O)[C@H]3O)[C@H]3COC(=O)[C@H]23)OCO4)cc(OC)c1O [etoposide, reference compound] | – | 8.6 ± 1.42 | 0.6 ± 0.16 | 3.9 ± 0.76 | 0.00311 ± 0.0002 | – | – | – | – | – | – | – | 4.48 ± 0.21 | 44.8 |
